Measurements taken from paper doi:10.1101/2025.09.24.678246 (bioRxiv, 2025).
In brackets after ≈: the same amount, converted by molar mass. Several values for one entry are separate records, joined by “and”; a condition that tells them apart may be missing. Equal entries are not always repeated. Where two headings read alike, the source gives them in different places.

Experiments:
BioA = BioA (Mycobacterium tuberculosis, UniProt P9WQ81); test: BioA Ki determination (tight binding, Morrison equation, 5 nM BioA); format: biochemical; settings: read-out: Fractional Vilocity (Vi/Vo %)
Sequence of BioA (P9WQ81 whole entry, looked up): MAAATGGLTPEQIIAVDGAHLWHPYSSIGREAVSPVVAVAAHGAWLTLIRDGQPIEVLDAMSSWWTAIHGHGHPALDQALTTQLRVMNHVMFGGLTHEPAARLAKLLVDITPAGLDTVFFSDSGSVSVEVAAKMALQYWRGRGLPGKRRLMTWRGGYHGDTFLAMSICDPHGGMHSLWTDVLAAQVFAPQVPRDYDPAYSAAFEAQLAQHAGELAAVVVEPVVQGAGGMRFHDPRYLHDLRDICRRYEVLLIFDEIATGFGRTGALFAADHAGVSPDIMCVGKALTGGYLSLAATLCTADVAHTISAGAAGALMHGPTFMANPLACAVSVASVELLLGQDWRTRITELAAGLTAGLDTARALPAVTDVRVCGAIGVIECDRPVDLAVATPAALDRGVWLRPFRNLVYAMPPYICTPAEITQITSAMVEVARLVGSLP

Mtb = test: Membrane fluidity measurements (laurdan GP); format: cell-based, Mycobacterium tuberculosis; settings: 150 nM
M. abscessus = test: MIC screening against M. abscessus (NTM); format: cell-based; settings: Mycobacteroides abscessus
A. baumannii ATCC 17978 = test: MIC screening against Gram-negative pathogens: A. baumannii
Experimental: MIC measurements were based on a method previously described[6]. Overnight liquid cultures of E. coli BW, E. coli C0244, A. baumannii ATCC 17978, K. pneumoniae ATCC 43816, P. aeruginosa PA01 and E. faecium ATCC 19434 strains were inoculated with a single colony from a freshly streaked agar plate of the corresponding bacterial strain and cultured in M9 minimal medium supplemented with amino acids[6]. The bacterial culture was prepared by washing 1 mL of overnight culture in PBS pH 7.4 (x3), then diluted to OD600 = 0.5 and used to inoculate 1:1000 in M9 minimal medium with amino acids in 96-well plates. Compounds were added to 96-well plates in two-fold serial dilutions. The plates were incubated stationary at 37 °C for 18 h, then OD600 was measured. […] The assay was performed in duplicate.

Mtb H37Rv [1] = test: C48 biotin deficient TB efficacy study; format: in vivo, BALB/c mice; settings: for bacterial burden per mouse, Fig. 5C / bacterial burden per mouse, Fig. 5D (second organ, not given): 200mg/kg
M. africanum = test: MIC screening against M. africanum; format: cell-based; settings: Mycobacterium tuberculosis, MTBC
in vivo = settings: female, CD-1, mouse
Mtb H37Rv [2] = test: microbe, parasite or virus in culture; format: cell-based, Mycobacterium tuberculosis; settings: Mycobacterium tuberculosis, H37RV; biotin-free medium
HepG2 = settings: for Growth compared to DMSO control (%): HepG2 cell
Mtb H37Rv [3] = test: Supplementation experiments in Mtb (KAPA, DAPA, DTB, biotin); format: cell-based, Mycobacterium tuberculosis
[4] = 200 mg/kg p.o. once daily, three weeks, biotin-deficient BALB/c
[5] = day 7 (values identical to Control: baseline)

**Q.** Which results are given for `O=C1CCc2cc(N3CCN(C(=O)c4ccc(F)c(Br)c4)CC3)ncc21` [C48]?
**A.** remaining activity at 0.000520246 µM (BioA; Fig. 2A, [Inhibitor C48] 0.520246 nM): 104%; remaining activity at 0.000780369 µM (BioA; Fig. 2A, [Inhibitor C48] 0.780369 nM): 90.9%; remaining activity at 0.00117055 µM (BioA; Fig. 2A, [Inhibitor C48] 1.17055 nM): 87.2%; remaining activity at 0.00175583 µM (BioA; Fig. 2A, [Inhibitor C48] 1.75583 nM): 81%; remaining activity at 0.00263374 µM (BioA; Fig. 2A, [Inhibitor C48] 2.63374 nM): 71.8%; remaining activity at 0.00395062 µM (BioA; Fig. 2A, [Inhibitor C48] 3.95062 nM): 58.3%; remaining activity at 0.00592593 µM (BioA; Fig. 2A, [Inhibitor C48] 5.92593 nM): 37.4%; remaining activity at 0.0074 µM (BioA; Fig. 2A, [Inhibitor C48] 7.4 nM): 29.2%; remaining activity at 0.00888889 µM (BioA; Fig. 2A, [Inhibitor C48] 8.88889 nM): 20.9%; remaining activity at 0.0133333 µM (BioA; Fig. 2A, [Inhibitor C48] 13.3333 nM): 9.57%; remaining activity at 0.02 µM (BioA; Fig. 2A, [Inhibitor C48] 20 nM): 4.24%; remaining activity at 0.03 µM (BioA; Fig. 2A, [Inhibitor C48] 30 nM): 1.42%; remaining activity at […] (BioA): 13.1%; Laurdan GP (Mtb; +Biotin): 0.2273 and 0.2244 and 0.2183; Laurdan GP (Mtb; -Biotin): 0.2797 and 0.2817 and 0.2774; laurdan GP change (Mtb; without biotin): increase; MIC (M. abscessus; ATCC19977, read-out: MIC (50% growth inhibition), M. abscessus (ATCC19977), reference strain): 0.5 µM (≈ 0.209 µg/mL); MIC (M. abscessus; M. abscessus, NTM, footnote mark d, read-out: MIC): 0.5 to 1 µM (≈ 0.209 to 0.418 µg/mL); MIC (M. abscessus; read-out: MIC (50% growth inhibition), M. abscessus BWH-B, clinical strain): 0.5 µM (≈ 0.209 µg/mL); MIC (M. abscessus; read-out: MIC (50% growth inhibition), M. abscessus BWH-D, clinical strain): 0.5 µM (≈ 0.209 µg/mL); MIC (M. abscessus; read-out: MIC (50% growth inhibition), M. abscessus T35, clinical strain): 0.5 µM (≈ 0.209 µg/mL); MIC (M. abscessus; read-out: MIC (50% growth inhibition), M. abscessus T37, clinical strain): 1 µM (≈ 0.418 µg/mL); MIC (M. abscessus; read-out: MIC (50% growth inhibition), M. abscessus T38, clinical strain): 1 µM (≈ 0.418 µg/mL); MIC (M. abscessus; read-out: MIC (50% growth inhibition), M. abscessus T49, clinical strain): 0.5 µM (≈ 0.209 µg/mL); MIC (M. abscessus; read-out: MICs against nontuberculous mycobacteria (NTM)): 0.5 to 1 µM (≈ 0.209 to 0.418 µg/mL); MIC (A. baumannii ATCC 17978): inactive; reduction of bacterial burden in lungs (Mtb H37Rv [1]; [4]): 1.0 log10 CFU; reduction of bacterial burden in spleen (Mtb H37Rv [1]; [4]): 2.1 log10 CFU; bacterial burden per mouse, Fig. 5C (Mtb H37Rv [1]; [5]): 700 and 200 and 360 and 1090 and 400 and 320; bacterial burden per mouse, Fig. 5D (second organ, not given) (Mtb H37Rv [1]; [5]): 1; bacterial burden per mouse, Fig. 5C (Mtb H37Rv [1]; day 21): 88000 and 30000 and 12000 and 11000 and 133000 and 32000; bacterial burden per mouse, Fig. 5D (second organ, not given) (Mtb H37Rv [1]; day 21): 90 and 1 (3×) and 20 and 70; bacterial burden per mouse, Fig. 5C (Mtb H37Rv [1]; day 28): 9700 and 74000 and 49000 and 29000 and 48000 (2×) and 36000; bacterial burden per mouse, Fig. 5D (second organ, not given) (Mtb H37Rv [1]; day 28): 20 and 6700 and 30 and 170 and 790 and 10 and 180; MIC (M. africanum): 0.012 µM (≈ 0.00502 µg/mL); half-life (in vivo): 54.6 min; Vd (in vivo; iv): 0.26 L/kg; clearance (in vivo; iv): 3.2 mL/min/kg; half-life (in vivo; iv): 54.6 min; AUC(0-inf) (in vivo; po, 25 mg/kg): 146 µg·h/mL; bioavailability (in vivo; po, 25 mg/kg): > 100%; MIC50 (Mtb H37Rv [2]): 0.093 µM (≈ 0.0389 µg/mL); therapeutic index (IC50/MIC50) (HepG2; HepG2 and HT-29 versus Mtb): greater than 10,000; Growth compared to DMSO control (%) (HepG2; 3.13 μM, 48 h): 106.559% and 101.297% and 106.056%; Growth compared to DMSO control (%) (HepG2; 6.25 μM, 48 h): 105.369% and 100.246%; Growth compared to DMSO control (%) (HepG2; 12.5 μM, 48 h): 104.304% and 99.8833%; Growth compared to DMSO control (%) (HepG2; 25 μM, 48 h): 105.369% and 101.144%; Growth compared to DMSO control (%) (HepG2; 50 μM, 48 h): 106.056% and 100.625% and 106.559%; Growth compared to DMSO control (%) (HepG2; 100 μM, 48 h): 110.419% and 100.81% and 101.702%; cytotoxicity toward HepG2 (HepG2; concentrations up to 100 μM, 48 h): no cytotoxicity; activity against Mtb cultured with 40 nM biotin (Mtb H37Rv [3]; 40 nM biotin): minimal activity; growth inhibitory effect with biotin supplementation (Mtb H37Rv [3]; 2 μM biotin, GAST): antagonized; growth inhibitory effect with DAPA supplementation (Mtb H37Rv [3]; 50 μM DAPA, GAST): antagonized; growth inhibitory effect with desthiobiotin (DTB) supplementation (Mtb H37Rv [3]; 50 μM DTB, GAST): antagonized; growth inhibitory effect with KAPA supplementation (Mtb H37Rv [3]; 50 μM KAPA, GAST): not
